Source: patent publication US20240391936A1, “TETRAHYDROTHIENO PYRIDINE DERIVATIVES AS DDRS INHIBITORS” (CHIESI FARMACEUTICI S.P.A., priority 2021, published 2024)

Legend:
DDR1 [1] = biological target: T1, DDR1 (Homo sapiens, UniProt Q08345); assay: DDR1 binding assay (LanthaScreen Europium Kinase Binding assay); design: purchased Carna Biosciences; details: binding assay, 5 nM DDR1, 20 nM Kinase Tracer 178; Ki from IC50 by Cheng-Prusoff; read-out: Ki DDR1
Experimental: (§1) DDR1 and DDR2 binding assays were performed using Life Technologies LanthaScreen™ Europium Kinase Binding assay. The compounds were incubated with 5 nM DDR1 (Carna Biosciences) or 5 nM DDR2 (Life Technologies) for 1 hour at room temperature in white 384-well OptiPlate (PerkinElmer), containing 20 nM or 10 nM Kinase Tracer 178 respectively and 2 nM Europium labelled anti-GST antibody (Life Technologies) in assay buffer (50 mM HEPES pH 7.5, 10 mM MgCl2, 1 mM EGTA and 0.01% BRIJ35).
(§2) The ratio of fluorescence emission 665 nm/615 nm after excitation at 340 nm was obtained using the Tecan Spark 20M plate reader. IC50 values were determined in GraphPad Prism 7.0 software, using 4 parameter model: log(inhibitor) vs. response. IC50 values were converted in Ki using the Cheng-Prusoff equation

DDR2 = biological target: T2, DDR2 (Homo sapiens, UniProt Q16832); assay: DDR2 binding assay (LanthaScreen Europium Kinase Binding assay); design: purchased Life Technologies; details: binding assay, 5 nM DDR2, 10 nM Kinase Tracer 178; Ki from IC50 by Cheng-Prusoff; read-out: Ki DDR2
T2 sequence (Q16832 22-855): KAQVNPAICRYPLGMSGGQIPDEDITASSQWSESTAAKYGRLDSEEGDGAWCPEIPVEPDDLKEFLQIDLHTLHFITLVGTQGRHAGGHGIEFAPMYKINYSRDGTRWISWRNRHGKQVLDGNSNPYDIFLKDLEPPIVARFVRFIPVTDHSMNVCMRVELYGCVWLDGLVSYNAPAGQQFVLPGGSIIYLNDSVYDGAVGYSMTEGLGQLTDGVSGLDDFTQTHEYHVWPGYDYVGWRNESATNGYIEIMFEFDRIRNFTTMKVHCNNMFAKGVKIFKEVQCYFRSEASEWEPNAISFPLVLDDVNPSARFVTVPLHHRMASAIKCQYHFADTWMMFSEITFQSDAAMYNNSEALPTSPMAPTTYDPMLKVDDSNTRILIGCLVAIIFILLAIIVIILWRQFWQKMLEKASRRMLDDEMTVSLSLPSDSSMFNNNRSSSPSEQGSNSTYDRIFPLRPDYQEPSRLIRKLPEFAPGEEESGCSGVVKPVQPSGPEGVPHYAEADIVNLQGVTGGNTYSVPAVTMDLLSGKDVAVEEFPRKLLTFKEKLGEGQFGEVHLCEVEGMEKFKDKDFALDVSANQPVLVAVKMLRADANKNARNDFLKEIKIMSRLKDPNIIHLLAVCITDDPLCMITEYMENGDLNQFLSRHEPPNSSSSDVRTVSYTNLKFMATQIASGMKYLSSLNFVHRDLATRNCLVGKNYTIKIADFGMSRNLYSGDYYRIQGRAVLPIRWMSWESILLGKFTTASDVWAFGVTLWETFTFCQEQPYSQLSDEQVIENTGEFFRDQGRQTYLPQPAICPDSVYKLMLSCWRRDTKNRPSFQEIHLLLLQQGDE
Experimental: as §1, §2

DDR1 [2] = biological target: T1, DDR1; assay: DDR1 cell based assay (PathHunter U2OS DDR1 assay); design: host or cells: U2OS-DDR1 (PathHunter); details: U2OS-DDR1 cells, bovine Type II Collagen 20 μg/ml
Experimental: The inhibition of DDR1 receptor activation by compounds was evaluated by PathHunter® U2OS DDR1 assay (Eurofins DiscoverX), according to the manufacturer's instructions. Briefly, U2OS-DDR1 cells were seeded in white 384-well plates at a density of 5000 cells/well and incubated for 2 hours at 37° C. and 5% CO2. Cells were then treated with compounds at different concentrations and incubated for 30 minutes, before stimulation with bovine Type II Collagen 20 μg/ml and incubation overnight at 37° C. and 5% CO2. PathHunter Detection Reagents were prepared according to the protocol provided by DiscoverX and 20 μl/well of this mix were added to each well. After incubating the plates for 1 hour at room temperature in the dark, luminescence signal was acquired with a plate reader. Raw data were normalized to vehicle control (0% for normalization) and positive control (100% for normalization; cells treated with 20 μg/ml collagen II) and IC50 parameters were calculated in GraphPad Prism 8.0 software, using sigmoidal dose-response curve fitting with variable slope.

T1 sequence (Q08345 19-913): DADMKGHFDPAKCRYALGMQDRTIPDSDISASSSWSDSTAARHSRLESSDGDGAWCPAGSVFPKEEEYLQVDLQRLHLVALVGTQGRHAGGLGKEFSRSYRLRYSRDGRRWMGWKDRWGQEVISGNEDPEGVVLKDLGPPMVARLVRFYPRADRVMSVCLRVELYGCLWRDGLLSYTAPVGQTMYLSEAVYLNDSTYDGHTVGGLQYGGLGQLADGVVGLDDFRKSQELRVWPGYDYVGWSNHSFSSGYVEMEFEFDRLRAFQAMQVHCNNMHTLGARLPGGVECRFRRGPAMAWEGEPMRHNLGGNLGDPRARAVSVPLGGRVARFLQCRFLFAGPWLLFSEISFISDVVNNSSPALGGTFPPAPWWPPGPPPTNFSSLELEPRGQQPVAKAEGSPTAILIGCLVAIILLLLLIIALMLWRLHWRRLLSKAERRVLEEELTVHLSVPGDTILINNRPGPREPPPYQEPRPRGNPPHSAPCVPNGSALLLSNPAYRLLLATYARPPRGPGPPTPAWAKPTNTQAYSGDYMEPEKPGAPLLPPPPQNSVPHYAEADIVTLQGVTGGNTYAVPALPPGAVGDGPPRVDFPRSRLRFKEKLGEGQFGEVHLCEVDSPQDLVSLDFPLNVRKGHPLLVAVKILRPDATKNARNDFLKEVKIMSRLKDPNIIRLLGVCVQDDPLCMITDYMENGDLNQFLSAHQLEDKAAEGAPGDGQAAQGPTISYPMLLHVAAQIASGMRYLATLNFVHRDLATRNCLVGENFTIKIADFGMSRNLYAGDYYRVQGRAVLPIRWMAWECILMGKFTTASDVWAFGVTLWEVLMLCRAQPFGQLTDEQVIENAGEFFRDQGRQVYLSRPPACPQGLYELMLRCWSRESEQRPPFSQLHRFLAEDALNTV

Ki (DDR1 [1]) | Ki (DDR2) | IC50 (DDR1 [2]) | Structure (SMILES)
< 25 nM | < 25 nM | < 25 nM | CC(C)(C)c1cc(NC(=O)c2csc3c2CCN(C(=O)c2cnc4ccccn24)C3)on1 [Example 34, N-(3-(tert-butyl)isoxazol-5-yl)-6-(imidazo[1,2-a]pyridine-3-carbonyl)-4,5,6,7-tetrahydrothieno[2,3-c]pyridine-3-carboxamide]
< 25 nM | < 25 nM | 25 to 50 nM | Cn1nc(C2CCC2)cc1NC(=O)c1csc2c1CCN(C(=O)c1cnc3ccccn13)C2 [Example 35, N-(3-cyclobutyl-1-methyl-1H-pyrazol-5-yl)-6-(imidazo[1,2-a]pyridine-3-carbonyl)-4,5,6,7-tetrahydrothieno[2,3-c]pyridine-3-carboxamide]
< 25 nM | < 25 nM | 50 to 80 nM | CC(C)c1cc(NC(=O)c2csc3c2CCN(C(=O)c2cnc4ccccn24)C3)n(C)n1 [Example 36, 6-(imidazo[1,2-a]pyridine-3-carbonyl)-N-(3-isopropyl-1-methyl-1H-pyrazol-5-yl)-4,5,6,7-tetrahydrothieno[2,3-c]pyridine-3-carboxamide]
< 25 nM | < 25 nM | 25 to 50 nM | CC(C)n1nc(C(C)(C)C)cc1NC(=O)c1csc2c1CCN(C(=O)c1cnc3ccccn13)C2 [Example 38, N-(3-(tert-butyl)-1-isopropyl-1H-pyrazol-5-yl)-6-(imidazo[1,2-a]pyridine-3-carbonyl)-4,5,6,7-tetrahydrothieno[2,3-c]pyridine-3-carboxamide]
< 25 nM | < 25 nM | 25 to 50 nM | CCCc1cc(NC(=O)c2csc3c2CCN(C(=O)c2cnc4ccccn24)C3)n(C)n1 [Example 39, 6-(imidazo[1,2-a]pyridine-3-carbonyl)-N-(1-methyl-3-propyl-1H-pyrazol-5-yl)-4,5,6,7-tetrahydrothieno[2,3-c]pyridine-3-carboxamide]
< 25 nM | < 25 nM | 25 to 50 nM | CC(C)(C)c1cc(NC(=O)c2csc3c2CCN(C(=O)c2cnc4ccccn24)C3)n(CC(F)(F)F)n1 [Example 40, N-(3-(tert-butyl)-1-(2,2,2-trifluoroethyl)-1H-pyrazol-5-yl)-6-(imidazo[1,2-a]pyridine-3-carbonyl)-4,5,6,7-tetrahydrothieno[2,3-c]pyridine-3-carboxamide]
< 25 nM | < 25 nM | 50 to 80 nM | CCn1nc(C(C)(C)C)cc1NC(=O)c1csc2c1CCN(C(=O)c1cnc3ccccn13)C2 [Example 42, N-(3-(tert-butyl)-1-ethyl-1H-pyrazol-5-yl)-6-(imidazo[1,2-a]pyridine-3-carbonyl)-4,5,6,7-tetrahydrothieno[2,3-c]pyridine-3-carboxamide]

Continued, compound first:

Structure (SMILES) | Ki (DDR1 [1]) | Ki (DDR2) | IC50 (DDR1 [2])
O=C(Nc1ccc(CN2CCCC2)c(C(F)(F)F)c1)c1csc2c1CCN(C(=O)c1cnc3ccccn13)C2 [Example 22, 6-(imidazo[1,2-a]pyridine-3-carbonyl)-N-(4-(pyrrolidin-1-ylmethyl)-3-(trifluoromethyl)phenyl)-4,5,6,7-tetrahydrothieno[2,3-c]pyridine-3-carboxamide] | < 25 nM | < 25 nM | 50 to 80 nM
CN(C)CCOc1cc(NC(=O)c2csc3c2CCN(C(=O)c2cnc4ccccn24)C3)cc(C(F)(F)F)c1 [Example 25, N-(3-(2-(dimethylamino)ethoxy)-5-(trifluoromethyl)phenyl)-6-(imidazo[1,2-a]pyridine-3-carbonyl)-4,5,6,7-tetrahydrothieno[2,3-c]pyridine-3-carboxamide] | < 25 nM | < 25 nM | 25 to 50 nM
O=C(Nc1cc(OCCN2CCCC2)cc(C(F)(F)F)c1)c1csc2c1CCN(C(=O)c1cnc3ccccn13)C2 [Example 26, 6-(imidazo[1,2-a]pyridine-3-carbonyl)-N-(3-(2-(pyrrolidin-1-yl)ethoxy)-5-(trifluoromethyl)phenyl)-4,5,6,7-tetrahydrothieno[2,3-c]pyridine-3-carboxamide] | < 25 nM | < 25 nM | 25 to 50 nM
CN(C)Cc1ccc(NC(=O)c2csc3c2CCN(C(=O)c2cnc4ccccn24)C3)cc1C(F)(F)F [Example 27] | < 25 nM | < 25 nM | 25 to 50 nM
O=C(Nc1cncc(C(F)(F)F)c1)c1csc2c1CCN(C(=O)c1cnc3ccccn13)C2 [Example 28, 6-(imidazo[1,2-a]pyridine-3-carbonyl)-N-(5-(trifluoromethyl)pyridin-3-yl)-4,5,6,7-tetrahydrothieno[2,3-c]pyridine-3-carboxamide] | < 25 nM | < 25 nM | < 25 nM
O=C(Nc1cc(C(F)(F)F)ccn1)c1csc2c1CCN(C(=O)c1cnc3ccccn13)C2 [Example 29, 6-(imidazo[1,2-a]pyridine-3-carbonyl)-N-(4-(trifluoromethyl)pyridin-2-yl)-4,5,6,7-tetrahydrothieno[2,3-c]pyridine-3-carboxamide] | < 25 nM | < 25 nM | 50 to 80 nM
O=C(Nc1nccc(C(F)(F)F)n1)c1csc2c1CCN(C(=O)c1cnc3ccccn13)C2 [Example 30, 6-(imidazo[1,2-a]pyridine-3-carbonyl)-N-(4-(trifluoromethyl)pyrimidin-2-yl)-4,5,6,7-tetrahydrothieno[2,3-c]pyridine-3-carboxamide] | < 25 nM | < 25 nM | 50 to 80 nM
CN1CCC(Oc2ccc(NC(=O)c3csc4c3CCN(C(=O)c3cnc5ccccn35)C4)cc2C(F)(F)F)C1 (stereo not drawn) [Example 31, 6-(imidazo[1,2-a]pyridine-3-carbonyl)-N-(4-((1-methylpyrrolidin-3-yl)oxy)-3-(trifluoromethyl)phenyl)-4,5,6,7-tetrahydrothieno[2,3-c]pyridine-3-carboxamide] | < 25 nM | < 25 nM | 50 to 80 nM
CN1CCC(Oc2ccc(NC(=O)c3csc4c3CCN(C(=O)c3cnc5ccccn35)C4)cc2C(F)(F)F)CC1 [Example 32, 6-(imidazo[1,2-a]pyridine-3-carbonyl)-N-(4-((1-methylpiperidin-4-yl)oxy)-3-(trifluoromethyl)phenyl)-4,5,6,7-tetrahydrothieno[2,3-c]pyridine-3-carboxamide] | < 25 nM | < 25 nM | 25 to 50 nM
CC(C)(C)c1cc(NC(=O)c2csc3c2CCN(C(=O)c2cnc4ccccn24)C3)no1 [Example 33, N-(5-(tert-butyl)isoxazol-3-yl)-6-(imidazo[1,2-a]pyridine-3-carbonyl)-4,5,6,7-tetrahydrothieno[2,3-c]pyridine-3-carboxamide] | < 25 nM | < 25 nM | 25 to 50 nM
CC(C)(C)c1cc(NC(=O)c2csc3c2CCN(C(=O)c2cnc4ccccn24)C3)ccn1 [Example 37, N-(2-(tert-butyl)pyridin-4-yl)-6-(imidazo[1,2-a]pyridine-3-carbonyl)-4,5,6,7-tetrahydrothieno[2,3-c]pyridine-3-carboxamide] | < 25 nM | < 25 nM | 25 to 50 nM
CC(C)(C)c1cc(NC(=O)c2csc3c2CCN(C(=O)c2cnc4ccccn24)C3)n(Cc2ccccc2)n1 [Example 41, N-(1-benzyl-3-(tert-butyl)-1H-pyrazol-5-yl)-6-(imidazo[1,2-a]pyridine-3-carbonyl)-4,5,6,7-tetrahydrothieno[2,3-c]pyridine-3-carboxamide] | < 25 nM | < 25 nM | 25 to 50 nM
